Experimental data from patent US12274711B2, “Method of determining Acute Myeloid Leukemia response to treatment with farnesyltransferase inhibitors” (Janssen Pharmaceutica NV, priority 2010, dated 2025).

How the values were obtained:
[1] = test system: previously untreated, poor-risk AML; assay: Phase 2 study of tipifarnib in older adults with previously untreated, poor-risk AML (clinical response, overall survival); assay type: in vivo, human
Description: In an exemplary example, bone marrow samples are collected from an open label, multicenter, non-comparative phase 2 study investigating the efficacy and safety of farnesyltransferase inhibition with tipifarnib (R115777, ZARNESTRA®) in older adults with previously untreated, poor-risk AML.
Briefly, HI was defined as any bone marrow blast count less than 5% or a reduction in bone marrow blasts by at least half. Progressive disease (PD) was defined as either >50% increase in bone marrow or circulating blast % from baseline, or new appearance of circulating blasts (on at least 2 consecutive occasions). Stable disease (SD) was defined as any response not meeting CR, PR, HI, or PD criteria.
This study examined gene expression profiles of leukemic bone marrow samples from patients enrolled in a Phase 2 clinical trial of the farnesyltransferase inhibitor tipifarnib in elderly patients with previously untreated poor-risk acute myelogenous leukemia. Lancet et al. (2006). Bone marrow from 67 patients was collected before treatment with tipifarnib and leukemic myeloid cells were enriched by Ficoll-density centrifugation (Table 1). Good quality total RNA from 13 responders (9 CR, 4 HI), 8 stable disease and 13 progressive disease patients was amplified, labeled, and hybridized to the Affymetrix U133A GeneChip. A total of 30 samples were evaluated by qPCR for validation of specific genes and 32 samples were evaluated for N-RAS mutational status.

[2] = test system: relapsed/refractory AML; assay: Independent dataset of 54 relapsed/refractory AML patients treated with tipifarnib; assay type: in vivo, human; details: 54 relapsed/refractory AML patient samples
Method: External validation of the TSP classifier was performed in an independent microarray dataset comprising of 54 relapsed/refractory AML patient samples. A diagnostic assay that predicts likely response to a cancer therapy should have a high sensitivity (and negative predictive value) since it is important to capture as many potential responders as possible. Therefore, to define an appropriate cutoff for testing the TSP classifier the need to obtain a high sensitivity of predicting responders while maintaining an acceptable level of specificity was considered. In the training set, the level of specificity that could be achieved ranged from approximately 30% to 100% when the sensitivity was set at 100% to 80%, respectively. To ensure the classifier would predict as many responders as possible a conservative cutoff that provided a specificity of approximately 60% in the training set was tested. When this cutoff was applied to the independent testing set of relapsed/refractory AML, the RASGRP1:APTX gene classifier stratified responders with 92% NPV and 27.6% PPV (compared to 18.5% prevalence) (FIG. 3C). The associated odds ratio for being a responder was 4.38.

[3] = Kaplan Meier analysis, RASGRP1 classifier, newly diagnosed AML (FIG. 1B)
[4] = qPCR RASGRP1:APTX classifier, cut-point 0, 30 patients (FIG. 3C)

## Cn1cncc1[C@@](N)(c1ccc(Cl)cc1)c1ccc2c(c1)c(-c1cccc(Cl)c1)cc(=O)n2C [tipifarnib]
[1]; All treated patients (n=158)
  CR, (%): (14) %
  CR, no.: 22
  HI, (%): (8) %
  HI, no.: 12
  PD, (%): (37) %
  PD, no.: 58
  PR, (%): (2) %
  PR, no.: 3
[1]; [3]
  median overall survival of the responders: 386 days
  median overall survival of those with progressive disease: 68 days
[1]; PGx profiled patients (n=67)
  CR, (%): (21) %
  CR, no.: 14
  HI, (%): (10) %
  HI, no.: 7
  PD, (%): (44) %
  PD, no.: 30
  PR, (%): (2) %
  PR, no.: 1
[1]; [4]
  median overall survival of the predicted resistant patients: 82 days
  median overall survival of those classified as responders: 295 days
[2]
  prevalence of responders: 18.5%
